Experimental data taken from PMC8597046, “Use of Mixture Dosing and Nonlinear Mixed Effect Modeling of Eight Environmental Contaminants in Rabbits to Improve Extrapolation Value of Toxicokinetic Data” (Environmental Health Perspectives, 2021).

Key:
[1] = Nonlinear mixed effect (NLME) compartmental modeling of merged IV and oral serum concentrations; settings: for Vd / k el / bioavailability / MRT / half-life / clearance / AUC: female, rabbit; for AUCVO/dose: oral dosing; for tvK12 (distribution rate constant) / tvK21 (distribution rate constant) / tvVc (volume of the central compartment) / tvKabs (rate constant of absorption): population primary parameter, typical value; for tvKabs (rate constant of absorption): MEHP after oral DEHP; for Volume(s) of the peripheral compartment: for PFOA first peripheral compartment
Procedure, shortened: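 Rabbit serum concentrations after IV and oral dosing fitted jointly by NLME compartmental modeling (−2LL minimization, Laplacian or QRPEM), exponential between-subject variability, combined additive/proportional error. CL, V2, Q, VZ, AUC (Dose/CL) and terminal half-life derived from population primary parameters.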

[2] = TK assay, oral mixture dosing: serum concentrations and noncompartmental analysis (sparse data); settings: female, rabbit, in vivo, po; for concentration at 24 h / concentration at 23.98 h / concentration at 168 h / concentration at 0.57 h / concentration at 672.02 h / concentration at 0.55 h / concentration at 671.96 h / concentration at 72 h / concentration at 71.96 h / concentration at 168.02 h: Serum concentration; for concentration at 24 h / concentration at 23.98 h / concentration at 72 h / concentration at 71.96 h: oral, MEHP after oral DEHP; for concentration at 23.98 h: rabbit 15, 23.98 h; for concentration at 0.57 h: rabbit 22, 0.57 h; for concentration at 671.96 h: rabbit 23, 671.96 h; for concentration at 71.96 h: rabbit 18, 71.96 h; for concentration at 168.02 h: rabbit 19, 168.02 h
Procedure, shortened: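 Female New Zealand white rabbits (10-wk, 2.37±0.14kg) got the compound mixture IV via ear-vein catheter or orally into the mouth; serum sampled 15 min to 28 d, 3 (or 6 at 30 min) rabbits per time. Sparse-data noncompartmental analysis gave AUC (linear trapezoidal), CL or CL_F, half-life and F.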

[3] = rodents; ref Staskal et al. 2005; cited from earlier work
[4] = New Zealand white (INRA 1777 line), in vivo
[5] = New Zealand white (INRA 1777 line), in vivo, po, Oral bioavailability (F), NLME model
[6] = New Zealand white, in vivo, population secondary parameter, mean
[7] = New Zealand white, in vivo, po, Bioavailability, population secondary parameter, mean, as fraction
[8] = population secondary parameter, mean
[9] = New Zealand white (INRA 1777 line)
[10] = New Zealand white (INRA 1777 line), rabbit 13, […]
[11] = New Zealand white (INRA 1777 line), rabbit 14, […]
[12] = New Zealand white (INRA 1777 line), rabbit 21, 168.00 h
[13] = New Zealand white (INRA 1777 line), rabbit 22, 672.02 h
[14] = New Zealand white (INRA 1777 line), rabbit 23, 0.55 h
[15] = New Zealand white (INRA 1777 line), rabbit 24, 0.55 h
[16] = New Zealand white (INRA 1777 line), rabbit 24, 672.02 h
[17] = New Zealand white, rabbit 16, 72.00 h
[18] = New Zealand white, rabbit 17, 72.00 h
[19] = New Zealand white, rabbit 20, 168.00 h

Structure (SMILES): Brc1ccc(Oc2ccc(Br)cc2Br)c(Br)c1 [BDE-47, 2,2′,4,4′-tetrabromodiphenyl ether]
- Vd [1, 4]: 45 L/kg
- k el [1, 4]: 1.8e-05 s⁻¹
- bioavailability [1, 5]: > 85%
- MRT ([1]; New Zealand white, in vivo): 5.54 days
- half-life ([1]; New Zealand white, in vivo): 6.79 days
- clearance [1, 6]: 5.67 mL/min/kg
- AUC ([1]; New Zealand white, in vivo, iv): 29 µM·h
- AUC ([1]; New Zealand white, in vivo, po): 71 µM·h
- bioavailability [1, 7]: 96%
- AUCVO/dose [1]: 2.97 μmol×h/L per μmol/kg BW
- tvK12 (distribution rate constant) ([1]; mean): 0.0697 h⁻¹
- tvK21 (distribution rate constant) ([1]; mean): 0.009154 h⁻¹
- tvVc (volume of the central compartment) ([1]; mean): 5.188 L/kg
- tvKabs (rate constant of absorption) ([1]; mean): 0.02289 h⁻¹
- Volume(s) of the peripheral compartment [1, 8]: 39 L/kg
- AUC(0-inf) [2, 9]: 79.5 µM·h
- CL/F [2, 9]: 5 mL/min/kg
- Cmax [2, 9]: 640 nM
- MRT [2, 9]: 10.8 days
- Tmax [2, 9]: 24 h
- Vd/F [2, 9]: 116 L/kg
- bioavailability [2, 9]: 78%
- half-life [2, 9]: 11.1 days
- concentration at 24 h [2, 10]: 770 nM
- concentration at 24 h [2, 11]: 510 nM
- concentration at 23.98 h [2, 9]: 300 nM
- concentration at 168 h [2, 12]: 110 nM
- concentration at 0.57 h [2, 9]: 12 nM
- concentration at 672.02 h [2, 13]: 17 nM
- concentration at 0.55 h [2, 14]: 33 nM
- concentration at 671.96 h [2, 9]: 27 nM
- concentration at 0.55 h [2, 15]: 110 nM
- concentration at 672.02 h [2, 16]: 30 nM
- concentration at 72 h [2, 17]: 160 nM
- concentration at 72 h [2, 18]: 210 nM
- concentration at 71.96 h ([2]; New Zealand white): 300 nM
- concentration at 168.02 h ([2]; New Zealand white): 92 nM
- concentration at 168 h [2, 19]: 120 nM
- Intestinal absorption [3]: 82%

Structure (SMILES): Cl[C@H]1[C@H](Cl)[C@@H](Cl)[C@H](Cl)[C@@H](Cl)[C@@H]1Cl [β-HCH, β-hexachlorocyclohexane]
- Vd [1, 4]: 33 L/kg
- bioavailability [1, 5]: > 85%
- k el ([1]; New Zealand white (INRA 1777 line), serum, other: intravenous and oral data merged): 4.69e-06 s⁻¹
- MRT ([1]; New Zealand white, in vivo): 15.8 days
- half-life ([1]; New Zealand white, in vivo): 13.2 days
- clearance [1, 6]: 1.45 mL/min/kg
- AUC ([1]; New Zealand white, in vivo, iv): 20 µM·h
- AUC ([1]; New Zealand white, in vivo, po): 87 µM·h
- bioavailability [1, 7]: 88%
- AUCVO/dose [1]: 12.5 μmol×h/L per μmol/kg BW
- tvK12 (distribution rate constant) ([1]; mean): 0.0593 h⁻¹
- tvK21 (distribution rate constant) ([1]; mean): 0.0110 h⁻¹
- tvVc (volume of the central compartment) ([1]; mean): 5.1310 L/kg
- tvKabs (rate constant of absorption) ([1]; mean): 0.0955 h⁻¹
- Volume(s) of the peripheral compartment [1, 8]: 28 L/kg
- AUC(0-inf) [2, 9]: 67.1 µM·h
- CL/F [2, 9]: 1.73 mL/min/kg
- Cmax [2, 9]: 297 nM
- MRT [2, 9]: 15.4 days
- Tmax [2, 9]: 24 h
- Vd/F [2, 9]: 47 L/kg
- bioavailability [2, 9]: 55%
- half-life [2, 9]: 13.1 days
- concentration at 24 h [2, 10]: 390 nM
- concentration at 24 h [2, 11]: 200 nM
- concentration at 23.98 h [2, 9]: 190 nM
- concentration at 168 h [2, 12]: 99 nM
- concentration at 0.57 h [2, 9]: 29 nM
- concentration at 672.02 h [2, 13]: 13 nM
- concentration at 0.55 h [2, 14]: 73 nM
- concentration at 671.96 h [2, 9]: 30 nM
- concentration at 0.55 h [2, 15]: 250 nM
- concentration at 672.02 h [2, 16]: 43 nM
- concentration at 72 h [2, 17]: 94 nM
- concentration at 72 h [2, 18]: 160 nM
- concentration at 71.96 h ([2]; New Zealand white): 180 nM
- concentration at 168.02 h ([2]; New Zealand white): 88 nM
- concentration at 168 h [2, 19]: 89 nM
